SMILES strings stand for the structures. Bounds are passed on as bounds.

The target of the assay is T1, GID4 (Uniprot ID: Q81VV7, residues 124-289) (Homo sapiens, UniProt Q8IVV7).
T1 construct: GID4 (Uniprot ID: Q81VV7, residues 124-289)
T1 sequence (Q8IVV7 124-289): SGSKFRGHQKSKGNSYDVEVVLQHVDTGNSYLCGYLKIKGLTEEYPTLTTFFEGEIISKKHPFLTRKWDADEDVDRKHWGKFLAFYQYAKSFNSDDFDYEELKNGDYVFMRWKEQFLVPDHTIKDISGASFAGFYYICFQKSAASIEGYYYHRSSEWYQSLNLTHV
Briefly: GID4 competitive binding assay (AlphaScreen, GID4/degron peptide PGLW). The following applies: 24 nM GID4, 48 nM biotinylated degron peptide PGLW, 4° C., read-out: IC50 (Inhibition of GID4/Degron binding by test compounds). Summed up: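 Displacement of biotin-tagged degron tetrapeptide PGLW (48 nM) from C-terminally 6His-tagged GID4 124-289 (24 nM) read by AlphaScreen proximity signal. Compound incubation 2 h, then beads 1 h, all at 4 °C, pH 7.5, 2% DMSO final; background-corrected inhibition fitted with variable slope for IC50.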
For orientation: In Alpha technology, singlet oxygen from a donor bead excites a nearby acceptor bead.
On to `CN1CCC(NC(=O)c2n[nH]c3ccc(-c4ccc5ccnc(N)c5c4)cc23)CC1` [Compound 338, 5-(1-aminoisoquinolin-7-yl)-N-(1-methylpiperidin-4-yl)-1H-indazole-3-carboxamide], for which the IC50 is < 500 nM.

Take `CN(C)CCNC(=O)c1ccc(-c2cc(O)c3ncccc3c2)cc1` [Compound 299, N-(2-(dimethylamino)ethyl)-4-(8-hydroxyquinolin-6-yl)benzamide]: the IC50 was < 500 nM. On to `CN(C)CCCCNC(=O)c1ccc(-c2cc(O)c3ncccc3c2)cc1` [Compound 289, N-(4-(dimethylamino)butyl)-4-(8-hydroxyquinolin-6-yl)benzamide], for which the IC50 is < 500 nM. For the compound `CC(C)c1cc(N2CCCC(c3n[nH]c4ccccc34)C2)nc(N)n1` (stereo not shown) [Compound 251, 4-(3-(1H-indazol-3-yl)piperidin-1-yl)-6-isopropylpyrimidin-2-amine], the IC50 was 500 to 5000 nM.

`CN1CCN(C(=O)c2cccc(-c3ccc4ccnc(N)c4c3)c2)CC1` [Compound 351, (3-(1-aminoisoquinolin-7-yl)phenyl)(4-methylpiperazin-1-yl)methanone]: the IC50 is > 5000 nM. With `CN(C)CCCNC(=O)c1csc(-c2cc(O)c3ncccc3c2)c1` [Compound 281, N-(3-(dimethylamino)propyl)-5-(8-hydroxyquinolin-6-yl)thiophene-3-carboxamide], the IC50 is < 500 nM. Then `Cc1c(-c2ccc(Br)c(C3CN(c4cc(C(C)C)nc(N)n4)CCN3)c2)cnn1C` (single isomer, unassigned) [Compound 6, R or S-4-(3-(2-bromo-5-(1,5-dimethyl-1H-pyrazol-4-yl)phenyl)piperazin-1-yl)-6-isopropylpyrimidin-2-amine], with < 500 nM; and `Nc1nc2c(c(N3CCCC(c4nnc5ccccn45)C3)n1)SCC2` (stereo not shown) [Compound 191, 4-(3-([1,2,4]triazolo[4,3-a]pyridin-3-yl)piperidin-1-yl)-6,7-dihydrothieno[3,2-d]pyrimidin-2-amine], with > 5000 nM. In the case of `CC(C)c1cc(N2CCCC(c3cnc4ccccn34)C2)ncn1` (single isomer, unassigned) [Compound 149, (S/R)-3-(1-(6-isopropylpyrimidin-4-yl)piperidin-3-yl)imidazo[1,2-a]pyridine], the IC50 was > 5000 nM. To `CC(C)c1cc(N2Cc3ccnn3C(c3ccccc3Br)C2)nc(N)n1` (stereo not shown) [Compound 2, 4-(7-(2-bromophenyl)-6,7-dihydropyrazolo[1,5-a]pyrazin-5(4H)-yl)-6-isopropylpyrimidin-2-amine] belongs 500 to 5000 nM. `CCc1cc(N2CCNC(c3cnc4ccccn34)C2)nc(N)n1` (single isomer, unassigned) [Compound 27, (R/S)-4-ethyl-6-(3-(imidazo[1,2-a]pyridin-3-yl)piperazin-1-yl)pyrimidin-2-amine]: the IC50 was > 5000 nM. As to `Nc1nc(C2CC2)cc(N2CCNC(c3cnc4ccccn34)C2)n1` (single isomer, unassigned) [Compound 103, (S/R)-4-cyclopropyl-6-(3-(imidazo[1,2-a]pyridin-3-yl)piperazin-1-yl)pyrimidin-2-amine], the IC50 was in the range of 500 to 5000 nM.

For `CC(C)c1cc(N2CCN[C@@H](c3cnc4ccccn34)C2)c2nc[nH]c2n1` (stereo in doubt) [Compound 368, (R/S)-7-(3-(imidazo[1,2-a]pyridin-3-yl)piperazin-1-yl)-5-isopropyl-3H-imidazo[4,5-b]pyridine], the IC50 was in the range of 500 to 5000 nM. With `Cc1cc(-c2cc(O)c3ncccc3c2)ccc1C(=O)NCCCN(C)C` [Compound 311, N-(3-(dimethylamino)propyl)-4-(8-hydroxyquinolin-6-yl)-2-methylbenzamide], the IC50 fell in the range of 500 to 5000 nM. Take `CN(C)CCCNC(=O)c1ccc(-c2cc(O)c3ncccc3c2)nc1` [Compound 294, N-(3-(dimethylamino)propyl)-6-(8-hydroxyquinolin-6-yl)nicotinamide]: the IC50 is < 500 nM. Then `Nc1cc(N2CCCC(c3cnc4ccncn34)C2)nc(N)n1` (stereo not shown) [Compound 258, 6-(3-(imidazo[1,2-c]pyrimidin-3-yl)piperidin-1-yl)pyrimidine-2,4-diamine], with 500 to 5000 nM.

Source of the values: patent publication US20240132464A1, “HETEROCYCLIC COMPOUNDS AS E3 LIGASE INHIBITORS” (Accutar Biotechnology Inc., priority 2022, published 2024).
